Source: publication PMC10122656, “Siglec-6 mediates the uptake of extracellular vesicles through a noncanonical glycolipid binding pocket” (Nature Communications, 2023)
“And” between values parts separate entries of the source, which are not always exact repeats. Identical values can stand only once.

Legend:
Test in all cases: Cell assay (liposome/EV binding, flow cytometry)
Format in all cases: cell-based
[1] = molecular target: T1, CD22 R120A CHO cells (Homo sapiens, UniProt P20273, R120A); conditions: 3 mol% ganglioside liposomes, replicates
T1 construct: expressed in transfected cells
T1 sequence (P20273 20-847 R120A): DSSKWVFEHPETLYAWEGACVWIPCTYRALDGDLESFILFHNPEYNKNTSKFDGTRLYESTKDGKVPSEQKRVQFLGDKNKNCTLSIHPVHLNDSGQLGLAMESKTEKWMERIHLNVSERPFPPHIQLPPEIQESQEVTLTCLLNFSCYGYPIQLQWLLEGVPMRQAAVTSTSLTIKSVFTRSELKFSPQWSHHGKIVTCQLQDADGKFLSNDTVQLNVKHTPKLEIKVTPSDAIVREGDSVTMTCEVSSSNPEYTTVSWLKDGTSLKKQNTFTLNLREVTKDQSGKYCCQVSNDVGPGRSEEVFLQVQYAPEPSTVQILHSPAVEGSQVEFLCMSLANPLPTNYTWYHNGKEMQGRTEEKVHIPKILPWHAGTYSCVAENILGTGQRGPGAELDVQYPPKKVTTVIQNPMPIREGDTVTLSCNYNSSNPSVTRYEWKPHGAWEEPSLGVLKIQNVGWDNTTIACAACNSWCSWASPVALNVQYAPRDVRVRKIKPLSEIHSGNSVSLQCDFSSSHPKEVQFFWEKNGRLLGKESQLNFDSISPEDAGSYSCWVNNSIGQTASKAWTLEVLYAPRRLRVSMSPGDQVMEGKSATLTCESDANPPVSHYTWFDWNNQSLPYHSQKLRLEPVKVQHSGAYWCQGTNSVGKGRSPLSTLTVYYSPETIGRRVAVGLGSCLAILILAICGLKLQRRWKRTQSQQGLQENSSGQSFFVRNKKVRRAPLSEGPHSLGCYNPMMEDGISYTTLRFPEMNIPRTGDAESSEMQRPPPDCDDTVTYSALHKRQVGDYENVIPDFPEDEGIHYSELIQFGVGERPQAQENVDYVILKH
Procedure, shortened: (§1)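 Cells are incubated for 30 min at 37 °C with ligand-displaying liposomes (50 µM lipid) or EVs (50 µg/mL protein) in DMEM F12 containing 5% FBS. After washing and anti-Siglec staining on ice, liposome binding is quantified by flow cytometry within the Siglec-positive population.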

[2] = molecular target: T2, Siglec-1 R116A CHO cells (Homo sapiens, UniProt Q9BZZ2, R116A); conditions: Sig-1 R116A; 3 mol% ganglioside liposomes; replicates
T2 construct: expressed in transfected cells
T2 sequence (Q9BZZ2 20-1709 R116A): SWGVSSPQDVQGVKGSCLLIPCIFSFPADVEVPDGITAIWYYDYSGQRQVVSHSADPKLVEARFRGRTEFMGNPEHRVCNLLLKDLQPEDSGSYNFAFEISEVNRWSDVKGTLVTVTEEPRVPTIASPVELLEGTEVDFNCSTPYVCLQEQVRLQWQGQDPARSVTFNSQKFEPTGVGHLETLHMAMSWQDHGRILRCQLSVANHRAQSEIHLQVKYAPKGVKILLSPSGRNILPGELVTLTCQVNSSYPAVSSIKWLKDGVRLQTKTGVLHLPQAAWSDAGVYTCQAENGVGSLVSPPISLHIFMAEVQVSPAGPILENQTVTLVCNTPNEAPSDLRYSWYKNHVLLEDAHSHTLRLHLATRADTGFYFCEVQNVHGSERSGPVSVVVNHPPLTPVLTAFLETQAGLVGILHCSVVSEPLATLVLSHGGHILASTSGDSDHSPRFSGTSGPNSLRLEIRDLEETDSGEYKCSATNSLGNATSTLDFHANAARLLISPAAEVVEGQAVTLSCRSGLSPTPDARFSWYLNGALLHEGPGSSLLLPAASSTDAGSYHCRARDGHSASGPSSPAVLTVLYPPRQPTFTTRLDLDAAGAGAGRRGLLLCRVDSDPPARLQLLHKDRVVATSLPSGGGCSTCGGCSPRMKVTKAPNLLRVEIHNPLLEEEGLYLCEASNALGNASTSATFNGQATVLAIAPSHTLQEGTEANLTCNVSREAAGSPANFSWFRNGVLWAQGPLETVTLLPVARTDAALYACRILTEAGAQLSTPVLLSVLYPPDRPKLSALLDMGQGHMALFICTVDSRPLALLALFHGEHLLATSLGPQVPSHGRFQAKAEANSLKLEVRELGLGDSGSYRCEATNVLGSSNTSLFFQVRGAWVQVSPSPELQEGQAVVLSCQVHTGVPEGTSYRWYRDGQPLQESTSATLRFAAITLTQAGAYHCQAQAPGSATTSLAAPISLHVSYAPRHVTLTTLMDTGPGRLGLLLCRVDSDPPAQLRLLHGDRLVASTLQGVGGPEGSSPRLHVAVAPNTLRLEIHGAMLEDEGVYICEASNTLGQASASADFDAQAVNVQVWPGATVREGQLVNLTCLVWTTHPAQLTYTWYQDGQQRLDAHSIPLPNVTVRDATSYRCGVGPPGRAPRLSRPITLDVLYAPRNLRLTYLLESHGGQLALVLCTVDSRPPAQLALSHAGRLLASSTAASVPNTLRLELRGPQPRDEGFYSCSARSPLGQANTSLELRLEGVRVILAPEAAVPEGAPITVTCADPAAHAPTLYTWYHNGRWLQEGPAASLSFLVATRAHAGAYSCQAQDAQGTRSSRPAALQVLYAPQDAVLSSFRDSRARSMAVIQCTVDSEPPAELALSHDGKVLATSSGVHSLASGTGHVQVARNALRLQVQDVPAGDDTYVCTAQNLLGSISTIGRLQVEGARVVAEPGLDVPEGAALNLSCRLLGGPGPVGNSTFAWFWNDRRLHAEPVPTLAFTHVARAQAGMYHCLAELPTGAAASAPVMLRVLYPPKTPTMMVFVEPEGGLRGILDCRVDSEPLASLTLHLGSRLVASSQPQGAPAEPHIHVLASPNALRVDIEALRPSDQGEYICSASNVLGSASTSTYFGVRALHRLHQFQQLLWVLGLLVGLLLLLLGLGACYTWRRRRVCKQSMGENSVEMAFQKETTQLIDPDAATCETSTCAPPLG
Procedure, shortened: as §1

[3] = molecular target: T3, Siglec-10 WT CHO cells (Homo sapiens, UniProt Q96LC7); conditions: for log10(MFI AF647) of GLL relative to log10(MFI AF647) of the same GLL against UT CHO cells (Fig. 2a): Sig-10 WT, 3 mol% ganglioside liposomes, replicates; for GLL binding to Siglec-10 (in words): cell assay, optimized liposomal formulation
T3 construct: expressed in transfected cells
T3 sequence (Q96LC7 17-697): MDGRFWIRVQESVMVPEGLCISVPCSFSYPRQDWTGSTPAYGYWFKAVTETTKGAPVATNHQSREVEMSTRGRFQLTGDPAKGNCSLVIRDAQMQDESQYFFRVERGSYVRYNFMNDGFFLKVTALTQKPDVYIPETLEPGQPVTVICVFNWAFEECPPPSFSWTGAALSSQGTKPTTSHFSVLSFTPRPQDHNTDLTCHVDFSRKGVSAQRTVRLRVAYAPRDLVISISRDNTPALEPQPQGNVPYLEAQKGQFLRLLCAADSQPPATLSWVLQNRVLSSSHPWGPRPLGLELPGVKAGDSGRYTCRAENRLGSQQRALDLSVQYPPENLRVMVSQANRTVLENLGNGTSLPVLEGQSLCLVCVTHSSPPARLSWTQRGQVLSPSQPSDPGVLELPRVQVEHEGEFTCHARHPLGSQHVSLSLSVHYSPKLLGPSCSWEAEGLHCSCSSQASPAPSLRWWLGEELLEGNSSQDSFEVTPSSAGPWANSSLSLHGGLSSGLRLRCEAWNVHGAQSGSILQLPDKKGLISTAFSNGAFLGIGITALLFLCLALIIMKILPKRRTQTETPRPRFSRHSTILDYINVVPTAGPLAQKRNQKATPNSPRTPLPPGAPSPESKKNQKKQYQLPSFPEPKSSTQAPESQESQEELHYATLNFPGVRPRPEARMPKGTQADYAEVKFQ
Procedure, shortened: as §1

| Substance | log10(MFI AF647) of GLL relative to log10(MFI AF647) of the same GLL against UT CHO cells (Fig. 2a) [1] | log10(MFI AF647) of GLL relative to log10(MFI AF647) of the same GLL against UT CHO cells (Fig. 2a) [2] | log10(MFI AF647) of GLL relative to log10(MFI AF647) of the same GLL against UT CHO cells (Fig. 2a) [3] | GLL binding to Siglec-10 (in words) [3] |
| --- | --- | --- | --- | --- |
| GD3 | 0.09 and 0.1 (2×) and 0.11 | -0.04 (2×) and -0.02 and 0.05 | 0.33 (2×) and 0.31 (2×) | novel interactions were observed |
| GD1b | 0.03 and 0.02 and -0.01 and 0.01 | -0.26 (2×) and -0.25 and -0.21 | 0.18 and 0.23 and 0.2 and 0.22 | – |
| GM3 | -0.15 and -0.16 and -0.17 and -0.18 | -0.19 and -0.23 and -0.18 and -0.21 | -0.09 (2×) and -0.02 and -0.08 | – |
| GT1b | 0.05 and 0.04 (2×) and 0.06 | -0.14 (2×) and -0.15 and -0.1 | 0.42 (2×) and 0.4 and 0.39 | – |
| GM1 | 0.06 and 0.04 and -0.02 and 0.03 | -0.21 and -0.24 and -0.22 and -0.2 | 0.32 (2×) and 0.35 and 0.26 | novel interactions were observed |
| GQ1b | -0.05 and -0.03 and -0.04 and -0.06 | -0.29 and -0.27 and -0.24 and -0.3 | 0.23 and 0.24 and 0.22 and 0.21 | – |
| GD1a | 0.09 and 0.1 and 0.05 and 0.08 | -0.06 (2×) and -0.02 and -0.08 | 0.32 (2×) and 0.3 and 0.31 | – |
| GM4 | 0.11 and 0.12 and 0.09 and 0.1 | -0.09 and -0.12 and -0.06 and -0.1 | 0.2 and 0.21 (3×) | – |
| GM2 | 0.1 (2×) and 0.12 and 0.08 | -0.08 and -0.1 (2×) and -0.07 | 0.23 and 0.24 and 0.22 and 0.18 | – |
